Measured values taken from US4332802A, “11-Oxo-11H-pyrido[2,1-b]quinazoline-2-carboxylic acid and salts thereof, antiallergic compositions containing it and methods of suppressing allergic reactions with it” (Boehringer Ingelheim KG, priority 1975, dated 1982).
Where two headings read alike, the source gives them in different places.

Tests used:
[1] = Absorption: quotient ED35 p.o./ED35 i.v. from the dextran edema test; details: in vivo; rat; the smaller the quotient, the better the absorption
Description: For the efficacy of a pharmaceutical which is to be administered perorally, the absorption is of particular advantage. Conclusions regarding the absorption can be drawn from a comparison of the ED35 --values p.o. and i.v.; the smaller the quotient ED35 p.o./ED35 i.v., the better the absorption.

[2] = test system: anaphylactoid dextran reaction in the rat paw; experiment: Dextran edema test (anaphylactoid dextran reaction, paw swelling); format: in vivo; details: for ED35: 0.5 h, rat, graphic extrapolation; for % Inhibition of swelling: rat paw, dextran, dose of 100 mgm/kg (p.o.)
Description: The antiallergic activity of the compounds of the present invention was ascertained and compared to that of structurally related known compounds by the anaphylactic dextran reaction method, where
Dextran induces in the rat a de-granulation of mast cells and thus the release of mediator substances such as histamine and serotonin, with consequent edema formation. The reaction manifests itself in a manner similar to anaphylaxis [see Morrison et al., J.exp.Med. 103, 399 (1956)].
Fasted male laboratory rats (Chbb:Thom.SPF) having a body weight of 120-180 gm were used as the test animals; they were initially kept in wire cages, and after provocation of the reaction on chaff. The allergic reaction was released by subplantar injection into the right hind paw of 100 μgm of dextran (mol. wt. 60,000) in 0.1 ml of physiological sodium chloride solution. The degree of inflammatory swelling was determined by dorso-plantar measurement of the thickness of the paw [see Doepfner et al., Int. Arch. Allergy 12, 89 (1958)] in 1/100 mm; swelling was defined as the difference between the paw thickness 30 minutes after the dextran injection and the paw thickness before the dextran injection. For the dextran injection and the paw thickness measurements the animal was placed under light general anesthesia with ether (etherrausch).
The test compound was administered shortly before release of the allergic reaction in sodium chloride solution i.v. (0.5 ml/100 gm body weight), or 10 minutes before in 1% tylose 2000 p.o. (1 ml/100 gm body weight). Control animals received only the vehicle.
From the raw data thus obtained the percentage of swelling inhibition was calculated from the average paw swelling in the treated animals (T) and in the control animals (K) in accordance with the formula [formula] By graphic extrapolation the dose of test compound was determined which produced a 35% reduction of the swelling (ED35). For graphic representation of percentage inhibition values the standard error (sx --) was determined according to Fenner, Naturwissenschaften 19, 310 (1931).
For the anaphylactoid dextran reaction in the rat paw the following values were obtained at a dose of 100 mgm/kg: […]

[3] = iv, i.v., shortly before dextran, sodium chloride solution, read-out: ED35 i.v. (dose producing 35% reduction of the swelling)
[4] = po, p.o., 10 minutes before dextran, 1% tylose, read-out: ED35 p.o. (dose producing 35% reduction of the swelling)

`O=C(O)c1ccc2nc3ccccc3c(=O)n2c1` [E, 11-Oxo-11H-pyrido[2,1-b]-quinazoline-8-carboxylic acid] gave an ED35 p.o./i.v. ratio (absorption) [1] of 4, an ED35 [2, 3] of 1.1 mg/kg and an ED35 [2, 4] of 4.4 mg/kg.
With `O=C(O)c1cccc2nc3ccccn3c(=O)c12` [B, 11-Oxo-11H-pyrido[2,1-b]quinazoline-1-carboxylic acid] the “% Inhibition of swelling” value [2] was 0%.
For `O=C(O)c1cccc2c(=O)n3ccccc3nc12` [C, 11-Oxo-11H-pyrido[2,1-b]quinazoline-4-carboxylic acid], the “% Inhibition of swelling” value [2] was 10%.
Work on `O=C(O)c1ccc2nc3ccccn3c(=O)c2c1` [A, 11-Oxo-11H-pyrido[2,1-b]quinazoline-2-carboxylic acid] yielded an ED35 p.o./i.v. ratio (absorption) [1] of 1.9, an ED35 [2, 3] of 2.1 mg/kg and an ED35 [2, 4] of 4 mg/kg.
For `O=C(O)c1ccn2c(=O)c3ccccc3nc2c1` [D, 11-Oxo-11H-pyrido[2,1-b]quinazoline-7-carboxylic acid], the “% Inhibition of swelling” value [2] was 38%.
